Measured values published in US10765114B2, “4-amino-6-(pyridyl and 2-substitutedphenyl)-picolinates and 6-amino-2-(pyridyl and 2-substitutedphenyl)-pyrimidine-4-carboxylates and their use as herbicides” (Dow AgroSciences LLC, priority 2013, dated 2020).
Like-named read-outs stand apart in the source and are kept apart here.

Experiments:
[1] = system: Key Grass and Sedge Weeds as well as Grass Crops; test: Post-Emergent Test II (Table 6); type: in vivo; conditions: for Visual Growth Reduction (%) 14 Days After Application, CYPSS: CYPSS (CYPES: yellow nutsedge, Cyperus esculentus); for Visual Growth Reduction (%) 14 Days After Application, DIGSA: DIGSA: crabgrass (Digitaria sanguinalis); for Visual Growth Reduction (%) 14 Days After Application, ECHSS: ECHSS (ECHCG: barnyardgrass, Echinochloa crus-galli); for Visual Growth Reduction (%) 14 Days After Application, ORYSS: ORYSS (ORYSA: rice, Oryza sativa); for Visual Growth Reduction (%) 14 Days After Application, ORYSS / Visual Growth Reduction (%) 14 Days After Application, TRZSS / Visual Growth Reduction (%) 14 Days After Application, ZEAMX: crop; for Visual Growth Reduction (%) 14 Days After Application, SETFA: SETFA: giant foxtail (Setaria faberi); for Visual Growth Reduction (%) 14 Days After Application, SORVU: SORVU: johnsongrass (Sorghum vulgare); for Visual Growth Reduction (%) 14 Days After Application, TRZSS: TRZSS (TRZAS: wheat, spring, Triticum aestivum); for Visual Growth Reduction (%) 14 Days After Application, ZEAMX: ZEAMX: maize, corn (Zea mays)
Protocol: (§1) Seeds or nutlets of the desired test plant species were planted in Sun Gro Metro-Mix® 360 planting mixture, which typically has a pH of 6.0 to 6.8 and an organic matter content of about 30 percent, in plastic pots with a surface area of 64 square centimeters. When required to ensure good germination and healthy plants, a fungicide treatment and/or other chemical or physical treatment was applied. The plants were grown for 7-21 days in a greenhouse with an approximate 15 h photoperiod which was maintained at about 23-29° C. during the day and 22-28° C. during the night. Nutrients and water were added on a regular basis and supplemental lighting was provided with overhead metal halide 1000-Watt lamps as necessary. The plants were employed for testing when they reached the first or second true leaf stage.
(§2) A weighed amount, determined by the highest rate to be tested, of each test compound was placed in a 25 mL glass vial and was dissolved in 4 mL of a 97:3 v/v mixture of acetone and DMSO to obtain concentrated stock solutions. […] The concentrated stock solutions obtained were diluted with 20 mL of an aqueous mixture containing acetone, water, isopropyl alcohol, DMSO, Atplus 411F crop oil concentrate, and Triton® X-155 surfactant in a 48.5:39:10:1.5:1.0:0.02 v/v ratio to obtain spray solutions containing the highest application rates. Additional application rates were obtained by serial dilution of 12 mL of the high rate solution into a solution containing 2 mL of 97:3 v/v mixture of acetone and DMSO and 10 mL of an aqueous mixture containing acetone, water, isopropyl alcohol, DMSO, Atplus 411F crop oil concentrate, and Triton X-155 surfactant in a 48.5:39:10:1.5:1.0:0.02 v/v ratio to obtain ½×, ¼×, ⅛× and 1/16× rates of the high rate. Compound requirements are based upon a 12 mL application volume at a rate of 187 liters per hectare (L/ha). Formulated compounds were applied to the plant material with an overhead Mandel track sprayer equipped with 8002E nozzles calibrated to deliver 187 L/ha over an application area of 0.503 square meters at a spray height of 18 inches (43 cm) above the average plant canopy height. Control plants were sprayed in the same manner with the solvent blank.
(§3) The treated plants and control plants were placed in a greenhouse as described above and watered by subirrigation to prevent wash-off of the test compounds. After 14 days, the condition of the test plants as compared with that of the untreated plants was determined visually and scored on a scale of 0 to 100 percent where 0 corresponds to no injury and 100 corresponds to complete kill and presented as indicated in Table A. Some of the compounds tested, application rates employed, plant species tested, and results are given in Table 5.

[2] = system: Key Broadleaf Weed and Crop Species; test: Post-Emergent Test II (Table 5); type: in vivo; conditions: post-emergence, 336 h; for pest or weed control at 70 g/ha: application rate 70 (kg ai/ha; footnote: g ai/ha); for pest or weed control at 140 g/ha: application rate 140 (kg ai/ha; footnote: g ai/ha)
Protocol: as §1, §2, §3

[3] = Abutilon theophrasti, ABUTH: velvetleaf (Abutilon theophrasti), read-out: Visual Growth Reduction (%) 14 Days After Application ABUTH
[4] = Amaranthus retroflexus, AMARE: redroot pigweed (Amaranthus retroflexus), read-out: Visual Growth Reduction (%) 14 Days After Application AMARE
[5] = Brassica napus, BRSSS: oilseed rape, canola (Brassica napus), read-out: Visual Growth Reduction (%) 14 Days After Application BRSSS
[6] = Chenopodium album, CHEAL: lambsquarters (Chenopodium album), read-out: Visual Growth Reduction (%) 14 Days After Application CHEAL
[7] = Euphorbia heterophylla, EPHHL: wild poinsettia (Euphorbia heterophylla), read-out: Visual Growth Reduction (%) 14 Days After Application EPHHL
[8] = Helianthus annuus, HELAN: sunflower (Helianthus annuus), read-out: Visual Growth Reduction (%) 14 Days After Application HELAN
[9] = Viola tricolor, VIOTR: wild pansy (Viola tricolor), read-out: Visual Growth Reduction (%) 14 Days After Application VIOTR

SMILES	Visual Growth Reduction (%) 14 Days After Application, CYPSS ([1]; 70 g ai/ha)	Visual Growth Reduction (%) 14 Days After Application, CYPSS ([1]; 140 g ai/ha)	Visual Growth Reduction (%) 14 Days After Application, DIGSA ([1]; 70 g ai/ha)	Visual Growth Reduction (%) 14 Days After Application, DIGSA ([1]; 140 g ai/ha)	Visual Growth Reduction (%) 14 Days After Application, ECHSS ([1]; 70 g ai/ha)	Visual Growth Reduction (%) 14 Days After Application, ECHSS ([1]; 140 g ai/ha)	Visual Growth Reduction (%) 14 Days After Application, ORYSS ([1]; 70 g ai/ha)	Visual Growth Reduction (%) 14 Days After Application, ORYSS ([1]; 140 g ai/ha)	Visual Growth Reduction (%) 14 Days After Application, SETFA ([1]; 70 g ai/ha)	Visual Growth Reduction (%) 14 Days After Application, SETFA ([1]; 140 g ai/ha)	Visual Growth Reduction (%) 14 Days After Application, SORVU ([1]; 70 g ai/ha)	Visual Growth Reduction (%) 14 Days After Application, SORVU ([1]; 140 g ai/ha)	Visual Growth Reduction (%) 14 Days After Application, TRZSS ([1]; 70 g ai/ha)	Visual Growth Reduction (%) 14 Days After Application, TRZSS ([1]; 140 g ai/ha)	Visual Growth Reduction (%) 14 Days After Application, ZEAMX ([1]; 70 g ai/ha)	Visual Growth Reduction (%) 14 Days After Application, ZEAMX ([1]; 140 g ai/ha)	pest or weed control at 70 g/ha [2, 3] [%]	pest or weed control at 140 g/ha [2, 3] [%]	pest or weed control at 70 g/ha [2, 4] [%]	pest or weed control at 140 g/ha [2, 4] [%]	further results
Nc1cc(-c2ccc(Cl)c(F)c2C(F)F)nc(C(=O)O)c1Cl [Compound 13, 4-Amino-3-chloro-6-(4-chloro-2-(difluoromethyl)-3-fluorophenyl)picolinic acid]	G (0-29)	G (0-29)	G (0-29)	G (0-29)	G (0-29)	G (0-29)	G (0-29)	G (0-29)	G (0-29)	G (0-29)	G (0-29)	G (0-29)	G (0-29)	G (0-29)	G (0-29)	G (0-29)	75 to 84	0 to 29	95 to 100	95 to 100	pest or weed control at 70 g/ha [2, 5]: 85 to 94%; pest or weed control at 140 g/ha [2, 5]: 85 to 94%; pest or weed control at 70 g/ha [2, 6]: 95 to 100%; pest or weed control at 140 g/ha [2, 6]: 95 to 100%; pest or weed control at 70 g/ha [2, 7]: 0 to 29%; pest or weed control at 140 g/ha [2, 7]: 0 to 29%; pest or weed control at 70 g/ha [2, 8]: 85 to 94%; pest or weed control at 140 g/ha [2, 8]: 85 to 94%; pest or weed control at 70 g/ha [2, 9]: 0 to 29%; pest or weed control at 140 g/ha [2, 9]: 0 to 29%
Nc1c(F)c(-c2ccc(Cl)c(F)c2Cl)nc(C(=O)O)c1Cl [Compound 16, 4-Amino-3-chloro-6-(2,4-dichloro-3-fluorophenyl)-5-fluoropicolinic acid]	A (95-100)	B (85-94)	C (75-84)	B (85-94)	B (85-94)	A (95-100)	F (30-44)	E (45-59)	A (95-100)	A (95-100)	C (75-84)	B (85-94)	B (85-94)	B (85-94)	B (85-94)	B (85-94)	85 to 94	95 to 100	95 to 100	95 to 100	pest or weed control at 70 g/ha [2, 5]: 95 to 100%; pest or weed control at 140 g/ha [2, 5]: 95 to 100%; pest or weed control at 70 g/ha [2, 6]: 95 to 100%; pest or weed control at 140 g/ha [2, 6]: 95 to 100%; pest or weed control at 70 g/ha [2, 7]: 85 to 94%; pest or weed control at 140 g/ha [2, 7]: 95 to 100%; pest or weed control at 70 g/ha [2, 8]: 95 to 100%; pest or weed control at 140 g/ha [2, 8]: 95 to 100%; pest or weed control at 70 g/ha [2, 9]: 95 to 100%; pest or weed control at 140 g/ha [2, 9]: 95 to 100%
